Usually melting point stands for the temperature of the solid-liquid transition. The term IC50 denotes the concentration that gives 50% inhibition. High values mean weaker potency in that assay, low ones greater potency in that assay.

The target in one series is T1, human androgen receptor (Homo sapiens, UniProt P10275).
T1 sequence (P10275 1-920): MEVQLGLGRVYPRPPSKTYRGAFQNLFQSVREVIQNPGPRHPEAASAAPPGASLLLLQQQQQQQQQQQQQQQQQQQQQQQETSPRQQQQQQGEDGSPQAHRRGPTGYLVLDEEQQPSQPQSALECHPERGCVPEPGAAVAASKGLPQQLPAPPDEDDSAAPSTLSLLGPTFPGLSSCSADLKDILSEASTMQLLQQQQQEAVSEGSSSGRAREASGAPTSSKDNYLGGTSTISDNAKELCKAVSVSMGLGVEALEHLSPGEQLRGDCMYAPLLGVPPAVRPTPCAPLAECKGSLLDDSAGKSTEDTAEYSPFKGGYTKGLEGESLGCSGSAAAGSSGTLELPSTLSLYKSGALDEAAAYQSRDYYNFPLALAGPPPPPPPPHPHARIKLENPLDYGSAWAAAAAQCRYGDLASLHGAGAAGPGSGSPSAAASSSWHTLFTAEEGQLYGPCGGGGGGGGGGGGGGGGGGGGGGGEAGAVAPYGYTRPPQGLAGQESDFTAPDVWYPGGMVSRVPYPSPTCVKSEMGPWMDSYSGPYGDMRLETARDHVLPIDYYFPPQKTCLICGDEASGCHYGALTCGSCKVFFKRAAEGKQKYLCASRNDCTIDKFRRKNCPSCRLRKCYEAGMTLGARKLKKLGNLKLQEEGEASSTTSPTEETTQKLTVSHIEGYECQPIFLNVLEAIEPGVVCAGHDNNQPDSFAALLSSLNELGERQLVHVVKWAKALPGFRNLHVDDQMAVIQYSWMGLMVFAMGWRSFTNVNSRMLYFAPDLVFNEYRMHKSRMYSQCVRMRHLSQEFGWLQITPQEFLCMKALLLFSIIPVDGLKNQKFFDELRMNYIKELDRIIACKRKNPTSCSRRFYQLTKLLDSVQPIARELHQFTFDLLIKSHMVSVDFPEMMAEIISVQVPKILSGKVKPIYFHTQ
Nature of the series: binding affinity to the androgen receptor (reference standard 3H-methyltrienolone R 1881).

Molecule `CCCCCCCSCC[C@]12CC[C@@H]3C(=CC[C@]4(C)[C@@H](O)CC[C@@H]34)[C@@]1(C)CC[C@H](O)C2` registered a melting point of 126 °C.
Still for that read-out and setting: the figure for `CCn1ccnc1SCC[C@]12CC[C@@H]3C(=CC[C@]4(C)[C@@H](O)CC[C@@H]34)[C@@]1(C)CC[C@H](O)C2` is 212 °C.
Regarding `C[C@]12CC=C3[C@@H](CCC4=CC(=O)CC[C@@]43CBr)[C@@H]1CC[C@@H]2O` [Example 2, 19-Bromo-17β-hydroxy-androsta-4,9(11)-dien-3-one], the melting point was 149 °C (dec.). Besides, the “affinity to the androgen receptor (in words)” value at human androgen receptor is on record as “high affinity”.
As to `C[C@]12CC=C3[C@@H](CCC4=CC(=O)CC[C@@]43CI)[C@@H]1CC[C@@H]2O` [iodide 6, 17β-Hydroxy-19-iodo-androsta-4,9(11)-dien-3-one], at human androgen receptor, the IC50 was found to be 57 nM and the “affinity to the androgen receptor (in words)” value was “high affinity”.

(Values after patent US6790843B1, “C-19-halogen-substituted steroids of the androst-9(11)-ene-series, methods for the production and use thereof” (Schering AG, priority 1999, dated 2004).)
